These results are taken from patent publication EP1373298B1, “A COMPOSITION CONTAINING NOVEL COMPOUND CORNICULATONIN HAVING ANTIFUNGI PROPERTIES AND A PROCESS FOR PREPARING THE SAME” (COUNCIL OF SCIENTIFIC AND INDUSTRIAL RESEARCH, priority 2001, dated 2002).

Assay [1] relates to Cryptococcus neoformans. The assay can be described thus: Disk diffusion assay, zone of inhibition. Type of assay: cell-based. The following applies: 250 µg. disk^-1, incubated 42-120 hrs at room temperature. An excerpt:
(§1) Agar: Czapek Malt Agar (Himedia laboratories Ltd.) was used for culturing Microsporum gypseum, Trichophyton mentagrophytes T. tonsurans, T. violaceum, Aspergillus fresenii and A. niger. Mycological Agar (Himedia Laboratories Ltd) was used for Cryptococcus neoformans and Candida sp.
(§2) Pathogenic fungal strains of yeast and filamentous fungi identified and gifted by Dr. Savio from Goa Medical College, Bambolim, were used for the test. Strains of Aspergillus were isolated from the infected wheat bread with sterile needle; fungal material was surface sterilized using 0.5 % sodium hypochlorite for 2-3 minutes, and then washed with small brush in sterile distilled water. Washed fungal material was transferred using needle into the sterile culture media and subcultured for purification by following standard methods (Collins and Taylor, 1967). Taxonomic identification was done by using various standard keys (Ainswort et al., 1973; Onion et al., 1981) and identification confirmed by Alka Pandey of Agarkar Research Institute, Pune.
(§3) Yeast strains (Candida sp. and Cryptococcus neoformans) were maintained by single colony transfer on mycological agar (Himedia Laboratories Ltd) at the refrigeration temperature (3-5°C). Filamentous fungi were maintained on Czapek Malt agar slants at refrigeration temperature (3-5°C), until needed for the assay.
(§4) Disk diffusion assay: The disk diffusion assay was used for screening of antifungal activity of the compound. The stock solution for the test was prepared by dissolving 5 mg of the compound of formula 1 in 200 µl dimethylsulphoxide (DMSO). From the stock solution 10 µl were spread on the paper disc so as to obtain the final concentration of 250 µg disk^-1. Control disk was applied reconstituted with only dimethylsulphoxide and were dried at 28-29°C. Completely dried disk was applied to innoculated plates. The plates were incubated at room temperature for the period between 42- 120 hrs. to obtain maximum growth in the culture media. The zones of inhibition around the disks were measured.

For assay [2], the system named is Aspergillus fresenii. The assay can be described thus: Disk diffusion assay, zone of inhibition. The format is cell-based. The settings on record: 250 µg. disk^-1, incubated 42-120 hrs at room temperature.
From the text: as §1, §2, §3, §4
In general terms: A growth-free zone around the sample is the usual read-out of agar diffusion tests.

The test system of assay [3] is T. violaceum. Nature of the assay: Disk diffusion assay, zone of inhibition. The format is cell-based. The settings on record: 250 µg. disk^-1, incubated 42-120 hrs at room temperature.
From the text: as §1, §2, §3, §4

Assay [4] deals with Candida sp. Nature of the assay: Disk diffusion assay, zone of inhibition. Type of assay: cell-based. The settings on record: 250 µg. disk^-1, incubated 42-120 hrs at room temperature.
From the text: as §1, §2, §3, §4

For assay [5], the system named is Aspergillus niger. The assay can be described thus: Disk diffusion assay, zone of inhibition. The following applies: 250 µg. disk^-1, incubated 42-120 hrs at room temperature. The format is cell-based.
From the text: as §1, §2, §3, §4

Assay [6] relates to Microsporum gypseum. The assay can be described thus: Disk diffusion assay, zone of inhibition. The format is cell-based. The following applies: 250 µg. disk^-1, incubated 42-120 hrs at room temperature.
From the text: as §1, §2, §3, §4

Assay [7] concerns Trichophyton mentagrophytes. The assay can be described thus: Disk diffusion assay, zone of inhibition. The format is cell-based. The settings on record: 250 µg. disk^-1, incubated 42-120 hrs at room temperature.
From the text: as §1, §2, §3, §4

Assay [8] has as its system T. tonsurans. Nature of the assay: Disk diffusion assay, zone of inhibition. The format is cell-based. The settings on record: 250 µg. disk^-1, incubated 42-120 hrs at room temperature.
From the text: as §1, §2, §3, §4

Assay [9] relates to Cryptococcus neoformans. Nature of the assay: Minimum inhibitory concentration (MIC), disk diffusion method. Type of assay: cell-based. The settings on record: disks of 50 to 3.12 µg, 42-120 hrs at room temperature.
From the text: as §1, §2, §3
(§5) Innocula were adjusted to 100 µl of Cryptococcus neoformans, Candida sp., Microsporum gypseum, Trichophyton tonsurans, T. violaceum and Trichophyton mentagrophytes and spread on the appropriate plates, excess moisture was allowed to absorb for 10 minutes before applying disks. Immediately prior to the assay, the testing compound of formula 1, object of the present invention, the reference compounds amphotericin B and nystatin, potency approx:750µ/mg and 4800USPunit/mg respectively, were reconstituted in triplicate in dimethylsulfoxide. […] From the stock solution 10 µl were spread on the paper disk so as to obtain final concentration of 50 µg disc^-1, 25µg disc^-1, 12.5 µg disc^-1, 6.25 µg disc^-1 and 3.12 µg disk^-1. Disks were dried at reduced pressure in the dessicator, at 28-29°C and applied to inoculated plates.
(§6) In testing, the compound of formula 1 was reconstituted in dimethylsulfoxide (DMSO) immediately prior to all assays. Dimethylsulfoxide (DMSO) alone had no detectable inhibitory effect on any of the tested microbes. Compound of formula 1 was tested against a diverse collection of yeast and filamentous fungi, some of which are resistant to the reference compound nystatin. Filamentous fungi were nystatin resistant.

The test system of assay [10] is Aspergillus fresenii. The assay is described as above. Type of assay: cell-based. The settings on record: disks of 50 to 3.12 µg, 42-120 hrs at room temperature.
From the text: as §1, §2, §3, §5, §6

In assay [11] the test system is T. violaceum. The assay is described as above. Type of assay: cell-based. The settings on record: disks of 50 to 3.12 µg, 42-120 hrs at room temperature.
From the text: as §1, §2, §3, §5, §6

The test system of assay [12] is Candida sp. The assay is described as above. Type of assay: cell-based. The following applies: disks of 50 to 3.12 µg, 42-120 hrs at room temperature.
From the text: as §1, §2, §3, §5, §6

Assay [13] concerns Microsporum gypseum. Described as above. Type of assay: cell-based. The settings on record: disks of 50 to 3.12 µg, 42-120 hrs at room temperature.
From the text: as §1, §2, §3, §5, §6

Assay [14] concerns Trichophyton mentagrophytes. Described as above. The following applies: disks of 50 to 3.12 µg, 42-120 hrs at room temperature. Type of assay: cell-based.
From the text: as §1, §2, §3, §5, §6

In assay [15] the test system is T. tonsurans. Described as above. Type of assay: cell-based. The following applies: disks of 50 to 3.12 µg, 42-120 hrs at room temperature.
From the text: as §1, §2, §3, §5, §6

The subject of assay [16] is Aspergillus niger. Described as above. Type of assay: cell-based. The settings on record: disks of 50 to 3.12 µg, 42-120 hrs at room temperature.
From the text: as §1, §2, §3, §5, §6

The subject of another assay is Cladosporium cucumerinum. The following applies: TLC bioassay; cited from earlier work.

Consider “3-O-α-rhamnopyranosyl-rhamnopyranosyl-glucopyranosyl-glucoronopyranosylgluco-pyrano side 16 α-hydroxy-13, 28-epoxy oleanane [Compound 1]”, for which the zones of inhibition is listed as 9 mm with Cryptococcus neoformans [1]; 10 mm in the assay on Aspergillus fresenii [2]; 13 mm in the assay on T. violaceum [3]; 9 mm with Candida sp. [4]; 4 mm in the assay on Aspergillus niger [5]; 14 mm in the assay with Microsporum gypseum [6]. The zones of inhibition in assay [7] worked out at 12 mm; in the assay with T. tonsurans [8], 14 mm. The MIC was 6.25 -12.5 µg. disk^-1 with Cryptococcus neoformans [9]; 25 -50 µg. disk^-1 in the assay with Aspergillus fresenii [10]; 25 - 50 µg. disk^-1 against T. violaceum [11]; 6.25 -12.5 µg. disk^-1 with Candida sp. [12]; 12.5 - 25 µg. disk^-1 in the assay with Microsporum gypseum [13]; 25 - 50 µg. disk^-1 in assay [14]. Further, the MIC against T. tonsurans [15] was 12.5 - 25 µg. disk^-1.
`C[C@@H]1[C@H](O)[C@@H](C)/C=C/C=C/C=C/C=C/C=C/C=C/C=C/[C@H](O[C@@H]2O[C@H](C)[C@@H](O)[C@H](N)[C@@H]2O)C[C@@H]2O[C@](O)(C[C@@H](O)C[C@@H](O)[C@H](O)CC[C@@H](O)C[C@@H](O)CC(=O)O[C@H]1C)C[C@H](O)[C@H]2C(=O)O` [Amphotericin B, reference compound]: the MIC in the assay with Cryptococcus neoformans [9] is 3.12 - 6.25 µg. disk^-1; with Aspergillus fresenii [10] it was 12.5 -25 µg. disk^-1; against T. violaceum [11], 6.25 -12.5 µg. disk^-1; with Candida sp. [12], 3.12 - 6.25 µg. disk^-1; against Aspergillus niger [16], 12.5 -25 µg. disk^-1; against Microsporum gypseum [13] it was 6.25 -12.5 µg. disk^-1. In addition, the MIC (in assay [14]; with T. tonsurans [15]) was 6.25 - 12.5 µg. disk^-1 each time.
`C[C@@H]1[C@H](O)[C@@H](C)/C=C/C=C/CC/C=C/C=C/C=C/C=C/C(O[C@H]2O[C@H](C)[C@@H](O)[C@H](N)[C@@H]2O)CC2O[C@](O)(CC(O)C(O)CCC(O)CC(O)CC(O)CC(=O)O[C@H]1C)CC(O)C2C(=O)O` (some centres unmarked) [Nystatin]: the MIC with Cryptococcus neoformans [9] is on record as 6.25 - 12.5 µg. disk^-1; in the assay on Candida sp. [12], 6.25 -12.5 µg. disk^-1.
With Sakurasaponin, the antifungal at in the assay on Cladosporium cucumerinum is listed as 1 µg.
